# Measurements: the supplement of paper PMC10307832
# Experiments:
# Assay in all cases: relative viability (nuclei count vs DMSO), 5 days (fraction); higher = more cells survive
# Idelalisib + Dasatinib = compound: CC[C@H](Nc1ncnc2[nH]cnc12)c1nc2cccc(F)c2c(=O)n1-c1ccccc1 [Idelalisib] + Cc1nc(Nc2ncc(C(=O)Nc3c(C)cccc3Cl)s2)cc(N2CCN(CCO)CC2)n1 [Dasatinib] (partner 0.075 µM)
# Procedure, shortened: (§1)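 After 5 days of treatment, lung cancer cells in 1536-well plates were fixed and stained in a single step (final 0.05% Triton X-100, 1% formaldehyde, 1 ug/ml Hoechst) and their nuclei counted on 4× images. Treatment had been applied by pin tool the day after seeding as one drug alone or as a fixed anchor-drug dose with five library-drug doses (not always all listed) in √10 steps. Relative viability is the nuclei count of treated wells divided by that of vehicle wells, and values are medians of duplicate plates.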
# Idelalisib + Decitabine = compound: CC[C@H](Nc1ncnc2[nH]cnc12)c1nc2cccc(F)c2c(=O)n1-c1ccccc1 [Idelalisib] + Nc1ncn([C@H]2C[C@H](O)[C@@H](CO)O2)c(=O)n1 [Decitabine] (partner 2 µM)
# Procedure, shortened: as §1
# Pemetrexed + Navitoclax = compound: Nc1nc2[nH]cc(CCc3ccc(C(=O)N[C@@H](CCC(=O)O)C(=O)O)cc3)c2c(=O)[nH]1 [Pemetrexed] + CC1(C)CCC(c2ccc(Cl)cc2)=C(CN2CCN(c3ccc(C(=O)NS(=O)(=O)c4ccc(N[C@H](CCN5CCOCC5)CSc5ccccc5)c(S(=O)(=O)C(F)(F)F)c4)cc3)CC2)C1 [Navitoclax] (partner 0.5 µM)
# Procedure, shortened: as §1
# Pemetrexed + Dasatinib = compound: Nc1nc2[nH]cc(CCc3ccc(C(=O)N[C@@H](CCC(=O)O)C(=O)O)cc3)c2c(=O)[nH]1 [Pemetrexed] + Cc1nc(Nc2ncc(C(=O)Nc3c(C)cccc3Cl)s2)cc(N2CCN(CCO)CC2)n1 [Dasatinib] (partner 0.075 µM)
# Procedure, shortened: as §1
cell line,measurement,setting,value
NCI-H3122,relative viability,Idelalisib + Dasatinib; first compound 0.04 µM,0.646
same,relative viability,Idelalisib + Dasatinib; first compound 0.1265 µM,0.55
same,relative viability,Idelalisib + Dasatinib; first compound 0.4 µM,0.552
same,relative viability,Idelalisib + Dasatinib; first compound 1.265 µM,0.817
same,relative viability,Idelalisib + Dasatinib; first compound 4 µM,0.467
same,relative viability,Idelalisib + Decitabine; first compound 0.04 µM,0.461
same,relative viability,Idelalisib + Decitabine; first compound 0.1265 µM,0.418
same,relative viability,Idelalisib + Decitabine; first compound 0.4 µM,0.358
same,relative viability,Idelalisib + Decitabine; first compound 1.265 µM,0.444
same,relative viability,Idelalisib + Decitabine; first compound 4 µM,0.369
same,relative viability,Pemetrexed + Navitoclax; first compound 0.002 µM,0.981
same,relative viability,Pemetrexed + Navitoclax; first compound 0.006325 µM,1.06
same,relative viability,Pemetrexed + Navitoclax; first compound 0.02 µM,1.03
same,relative viability,Pemetrexed + Navitoclax; first compound 0.06325 µM,1.01
same,relative viability,Pemetrexed + Navitoclax; first compound 0.2 µM,0.826
same,relative viability,Pemetrexed + Dasatinib; first compound 0.002 µM,0.707
same,relative viability,Pemetrexed + Dasatinib; first compound 0.006325 µM,0.815
same,relative viability,Pemetrexed + Dasatinib; first compound 0.02 µM,0.659
same,relative viability,Pemetrexed + Dasatinib; first compound 0.06325 µM,0.674
same,relative viability,Pemetrexed + Dasatinib; first compound 0.2 µM,0.463
NCI-H2170,relative viability,Idelalisib + Dasatinib; first compound 0.04 µM,0.661
same,relative viability,Idelalisib + Dasatinib; first compound 0.1265 µM,0.473
same,relative viability,Idelalisib + Dasatinib; first compound 0.4 µM,0.536
same,relative viability,Idelalisib + Dasatinib; first compound 1.265 µM,0.383
same,relative viability,Idelalisib + Dasatinib; first compound 4 µM,0.554
same,relative viability,Idelalisib + Decitabine; first compound 0.04 µM,0.507
same,relative viability,Idelalisib + Decitabine; first compound 0.1265 µM,0.471
same,relative viability,Idelalisib + Decitabine; first compound 0.4 µM,0.505
same,relative viability,Idelalisib + Decitabine; first compound 1.265 µM,0.438
same,relative viability,Idelalisib + Decitabine; first compound 4 µM,0.417
same,relative viability,Pemetrexed + Navitoclax; first compound 0.002 µM,0.538
same,relative viability,Pemetrexed + Navitoclax; first compound 0.006325 µM,0.587
same,relative viability,Pemetrexed + Navitoclax; first compound 0.02 µM,0.663
same,relative viability,Pemetrexed + Navitoclax; first compound 0.06325 µM,0.662
same,relative viability,Pemetrexed + Navitoclax; first compound 0.2 µM,0.5
same,relative viability,Pemetrexed + Dasatinib; first compound 0.002 µM,0.581
same,relative viability,Pemetrexed + Dasatinib; first compound 0.006325 µM,0.631
same,relative viability,Pemetrexed + Dasatinib; first compound 0.02 µM,0.612
same,relative viability,Pemetrexed + Dasatinib; first compound 0.06325 µM,0.505
same,relative viability,Pemetrexed + Dasatinib; first compound 0.2 µM,0.575
NCI-H1793,relative viability,Idelalisib + Dasatinib; first compound 0.04 µM,0.379
same,relative viability,Idelalisib + Dasatinib; first compound 0.1265 µM,0.372
same,relative viability,Idelalisib + Dasatinib; first compound 0.4 µM,0.294
same,relative viability,Idelalisib + Dasatinib; first compound 1.265 µM,0.374
same,relative viability,Idelalisib + Dasatinib; first compound 4 µM,0.323
same,relative viability,Idelalisib + Decitabine; first compound 0.04 µM,0.404
same,relative viability,Idelalisib + Decitabine; first compound 0.1265 µM,0.398
same,relative viability,Idelalisib + Decitabine; first compound 1.265 µM,0.454
same,relative viability,Idelalisib + Decitabine; first compound 4 µM,0.38
same,relative viability,Pemetrexed + Navitoclax; first compound 0.002 µM,0.616
same,relative viability,Pemetrexed + Navitoclax; first compound 0.006325 µM,0.41
same,relative viability,Pemetrexed + Navitoclax; first compound 0.02 µM,0.55
same,relative viability,Pemetrexed + Navitoclax; first compound 0.06325 µM,0.421
same,relative viability,Pemetrexed + Navitoclax; first compound 0.2 µM,0.416
same,relative viability,Pemetrexed + Dasatinib; first compound 0.002 µM,0.312
same,relative viability,Pemetrexed + Dasatinib; first compound 0.006325 µM,0.294
same,relative viability,Pemetrexed + Dasatinib; first compound 0.02 µM,0.46
same,relative viability,Pemetrexed + Dasatinib; first compound 0.06325 µM,0.375
same,relative viability,Pemetrexed + Dasatinib; first compound 0.2 µM,0.412
BEN,relative viability,Idelalisib + Dasatinib; first compound 0.04 µM,0.305
same,relative viability,Idelalisib + Dasatinib; first compound 0.1265 µM,0.318
same,relative viability,Idelalisib + Dasatinib; first compound 0.4 µM,0.32
same,relative viability,Idelalisib + Dasatinib; first compound 1.265 µM,0.364
same,relative viability,Idelalisib + Dasatinib; first compound 4 µM,0.31
same,relative viability,Idelalisib + Decitabine; first compound 0.04 µM,0.736
same,relative viability,Idelalisib + Decitabine; first compound 0.1265 µM,0.649
same,relative viability,Idelalisib + Decitabine; first compound 0.4 µM,0.757
same,relative viability,Idelalisib + Decitabine; first compound 1.265 µM,0.775
same,relative viability,Idelalisib + Decitabine; first compound 4 µM,0.694
same,relative viability,Pemetrexed + Navitoclax; first compound 0.002 µM,0.0683
same,relative viability,Pemetrexed + Navitoclax; first compound 0.006325 µM,0.0717
same,relative viability,Pemetrexed + Navitoclax; first compound 0.02 µM,0.0575
same,relative viability,Pemetrexed + Navitoclax; first compound 0.06325 µM,0.0762
same,relative viability,Pemetrexed + Navitoclax; first compound 0.2 µM,0.0946
same,relative viability,Pemetrexed + Dasatinib; first compound 0.002 µM,0.374
same,relative viability,Pemetrexed + Dasatinib; first compound 0.006325 µM,0.288
same,relative viability,Pemetrexed + Dasatinib; first compound 0.02 µM,0.345
same,relative viability,Pemetrexed + Dasatinib; first compound 0.06325 µM,0.303
same,relative viability,Pemetrexed + Dasatinib; first compound 0.2 µM,0.349
NCI-H647,relative viability,Idelalisib + Dasatinib; first compound 0.04 µM,0.194
same,relative viability,Idelalisib + Dasatinib; first compound 0.1265 µM,0.203
same,relative viability,Idelalisib + Dasatinib; first compound 1.265 µM,0.173
same,relative viability,Idelalisib + Dasatinib; first compound 4 µM,0.127
same,relative viability,Idelalisib + Decitabine; first compound 0.04 µM,0.332
same,relative viability,Idelalisib + Decitabine; first compound 0.1265 µM,0.408
same,relative viability,Idelalisib + Decitabine; first compound 0.4 µM,0.3
same,relative viability,Idelalisib + Decitabine; first compound 1.265 µM,0.318
same,relative viability,Idelalisib + Decitabine; first compound 4 µM,0.193
same,relative viability,Pemetrexed + Navitoclax; first compound 0.002 µM,1.13
same,relative viability,Pemetrexed + Navitoclax; first compound 0.006325 µM,0.987
same,relative viability,Pemetrexed + Navitoclax; first compound 0.02 µM,1.15
same,relative viability,Pemetrexed + Navitoclax; first compound 0.06325 µM,0.954
same,relative viability,Pemetrexed + Navitoclax; first compound 0.2 µM,0.308
same,relative viability,Pemetrexed + Dasatinib; first compound 0.002 µM,0.151
same,relative viability,Pemetrexed + Dasatinib; first compound 0.006325 µM,0.16
same,relative viability,Pemetrexed + Dasatinib; first compound 0.02 µM,0.175
same,relative viability,Pemetrexed + Dasatinib; first compound 0.06325 µM,0.156
same,relative viability,Pemetrexed + Dasatinib; first compound 0.2 µM,0.127
PC-14,relative viability,Idelalisib + Dasatinib; first compound 0.04 µM,0.273
same,relative viability,Idelalisib + Dasatinib; first compound 0.1265 µM,0.266
same,relative viability,Idelalisib + Dasatinib; first compound 0.4 µM,0.248
same,relative viability,Idelalisib + Dasatinib; first compound 1.265 µM,0.0361
same,relative viability,Idelalisib + Dasatinib; first compound 4 µM,0.223
same,relative viability,Idelalisib + Decitabine; first compound 0.04 µM,0.295
same,relative viability,Idelalisib + Decitabine; first compound 0.1265 µM,0.194
same,relative viability,Idelalisib + Decitabine; first compound 0.4 µM,0.215
same,relative viability,Idelalisib + Decitabine; first compound 1.265 µM,0.166
same,relative viability,Idelalisib + Decitabine; first compound 4 µM,0.209
same,relative viability,Pemetrexed + Navitoclax; first compound 0.002 µM,0.976
same,relative viability,Pemetrexed + Navitoclax; first compound 0.006325 µM,0.976
same,relative viability,Pemetrexed + Navitoclax; first compound 0.02 µM,1.05
same,relative viability,Pemetrexed + Navitoclax; first compound 0.06325 µM,0.428
same,relative viability,Pemetrexed + Navitoclax; first compound 0.2 µM,0.129
same,relative viability,Pemetrexed + Dasatinib; first compound 0.002 µM,0.249
same,relative viability,Pemetrexed + Dasatinib; first compound 0.006325 µM,0.242
same,relative viability,Pemetrexed + Dasatinib; first compound 0.02 µM,0.316
same,relative viability,Pemetrexed + Dasatinib; first compound 0.06325 µM,0.0953
same,relative viability,Pemetrexed + Dasatinib; first compound 0.2 µM,0.0482
HCC-78,relative viability,Idelalisib + Dasatinib; first compound 0.04 µM,0.407
same,relative viability,Idelalisib + Dasatinib; first compound 0.1265 µM,0.378
same,relative viability,Idelalisib + Dasatinib; first compound 0.4 µM,0.311
same,relative viability,Idelalisib + Dasatinib; first compound 1.265 µM,0.361
same,relative viability,Idelalisib + Dasatinib; first compound 4 µM,0.41
same,relative viability,Idelalisib + Decitabine; first compound 0.04 µM,0.738
same,relative viability,Idelalisib + Decitabine; first compound 0.1265 µM,0.731
same,relative viability,Idelalisib + Decitabine; first compound 0.4 µM,0.667
same,relative viability,Idelalisib + Decitabine; first compound 1.265 µM,0.647
same,relative viability,Idelalisib + Decitabine; first compound 4 µM,0.665
same,relative viability,Pemetrexed + Navitoclax; first compound 0.006325 µM,0.646
same,relative viability,Pemetrexed + Navitoclax; first compound 0.02 µM,0.547
same,relative viability,Pemetrexed + Navitoclax; first compound 0.06325 µM,0.242
same,relative viability,Pemetrexed + Navitoclax; first compound 0.2 µM,0.207
same,relative viability,Pemetrexed + Dasatinib; first compound 0.002 µM,0.305
same,relative viability,Pemetrexed + Dasatinib; first compound 0.006325 µM,0.453
same,relative viability,Pemetrexed + Dasatinib; first compound 0.02 µM,0.363
same,relative viability,Pemetrexed + Dasatinib; first compound 0.06325 µM,0.241
same,relative viability,Pemetrexed + Dasatinib; first compound 0.2 µM,0.246
